What all share (test): growth of human tumour cells (NCI), 48 h
Assay [1] relates to HL-60(TB) leukemia.
For assay [2], the system named is SK-MEL-5 melanoma.
The test system of assay [3] is RXF 393 renal.
For assay [4], the system named is SW-620 colon.
For assay [5], the system named is OVCAR-3 ovarian.
Assay [6] has as its system SK-MEL-28 melanoma.
The subject of assay [7] is MDA-N.
For assay [8], the system named is SN12C renal.
For assay [9], the system named is EKVX NSCLC.
Assay [10] concerns KM12 colon.
Assay [11] relates to LOX IMVI melanoma.
Assay [12] deals with A498 renal.
In assay [13] the test system is RPMI-8226 leukemia.
Assay [14] relates to SK-MEL-2 melanoma.
Assay [15] deals with SF-295 CNS.
Assay [16] deals with SF-268 CNS.
For assay [17], the system named is TK-10 renal.
Assay [18] relates to HOP-92 NSCLC.

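1) Cells in 96-well plates. 2) Compound, 48 h, 5 concentrations. 3) Linear interpolation between surrounding doses. 4) Unreached endpoint = highest concentration. At the TGI there is no net growth.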

Turning to `Cc1ccc2c(c1)C(=O)c1ccc(C)nc1C2=O`, the TGI in [1] was above 100 µM; in assay [2], 26.7 µM; in [3], above 100 µM; in assay [4] it was above 100 µM; in [5], above 100 µM; in assay [6], above 100 µM. The TGI was 31.4 µM in assay [7]; 59.2 µM in assay [8]; above 100 µM in [9]; above 100 µM in assay [10]; 75.6 µM in assay [11]; above 100 µM in [12]. The TGI in assay [13], in assay [14], in assay [15], in assay [16] and in assay [17] was above 100 µM each time.

As to `O=C(O)C1CCCCN1CCc1c[nH]c2ccccc12` (stereo not drawn), the TGI in assay [1], in [18], in assay [3], in assay [4], in assay [5] and in assay [6] was above 100 µM in each case. The TGI in assay [7], in assay [8], in assay [9], in assay [10], in [11] and in assay [13] was above 100 µM throughout. The TGI in assay [14], in assay [15], in assay [16] and in assay [17] was above 100 µM throughout.

Turning to `CC(=O)Nc1ccccc1S(=O)(=O)c1c(-c2c(C)c(Cl)c(C)c(Cl)c2C)noc1C`, the TGI in [2], in assay [3], in [4], in [5], in assay [6] and in [7] was above 100 µM throughout. Also, the TGI in assay [8], in assay [9], in assay [10], in [12], in assay [13] and in [14] was above 100 µM in each case. In addition, the TGI is above 100 µM in assay [15], above 100 µM in assay [16] and 73.7 µM in assay [17].

On to `CC(=O)/C(=C\n1c(=S)[nH]c2ccc([N+](=O)[O-])cc21)C(=O)Nc1ccccc1C`, for which the TGI in assay [1], in assay [2], in assay [3], in assay [4], in assay [5] and in [6] was above 100 µM each time. Moreover, the TGI in [7], in assay [8], in assay [9], in assay [11], in [12] and in [13] was above 100 µM throughout. Also, the TGI in assay [14] and in assay [15] was above 100 µM throughout.

For `COC(=O)/C=C(\S/C(=C(/c1ccccc1)n1cc(C(=O)OC)c(C(=O)OC)n1)c1ccccc1)C(=O)OC`, the TGI in [1] was found to be 12.6 µM; in assay [2], 44.5 µM; in assay [3] it was 31.4 µM; in [4], 16.9 µM; in assay [5], 8.29 µM; in [6] it was 60.4 µM. Also, the TGI in assay [7] was 37.9 µM; in assay [8] it was 40.9 µM; in assay [9], 32.1 µM; in assay [10] it was above 100 µM; in assay [11], 21.4 µM; in assay [12], above 100 µM. The TGI in [13] was 26.9 µM; in [14], 35.8 µM; in assay [15], above 100 µM; in assay [16], 32.8 µM; in [17], 9.22 µM.

`O=[N+]([O-])c1ccc2nc(/C=C(\O)c3ccccc3)c(/C=C(\O)c3ccc(Cl)cc3)nc2c1`: the TGI is above 100 µM in assay [2]; 83.9 µM in assay [3]; above 100 µM in assay [5]; above 100 µM in assay [7]; above 100 µM in assay [8]; above 100 µM in assay [9]. Besides, the TGI in assay [10], in assay [12], in assay [14], in assay [15], in [16] and in assay [17] was above 100 µM throughout.

As to `O=C(N/N=C1\CCc2ccccc21)N/N=C1\CCc2ccccc21`, the TGI in assay [1], in assay [2], in assay [3], in assay [4], in assay [5] and in [6] was above 100 µM throughout. Moreover, the TGI in assay [7] is 30 µM; in assay [8], above 100 µM; in assay [10] it was above 100 µM; in [11] it was above 100 µM; in assay [12] it was above 100 µM; in assay [13] it was above 100 µM. In addition, the TGI in [14], in assay [15], in assay [16] and in [17] was above 100 µM throughout.

Regarding `NC1=NC(=O)[C@H](CSCc2ccccc2)N1C(=O)OCc1ccccc1`, the TGI in [1], in [2], in assay [3], in assay [4], in assay [5] and in [7] was above 100 µM throughout. The TGI in [8], in [9], in [10], in [11], in assay [12] and in [14] was above 100 µM each time. The TGI in assay [15], in assay [16] and in assay [17] was above 100 µM throughout.

As for `CN(Cc1cnc2nc(N)nc(N)c2n1)c1ccc(C(=O)NC2CCCCC2)cc1`, the TGI in [1] is above 100 µM; in assay [2], 38.1 µM; in assay [3], above 100 µM; in [4] it was above 100 µM; in [5], above 100 µM; in assay [7], above 100 µM. Besides, the TGI was above 100 µM in assay [8]; above 100 µM in assay [9]; 83.2 µM in assay [10]; above 100 µM in assay [11]; 77.3 µM in assay [12]; above 100 µM in assay [13]. Also, the TGI in assay [14], in [15], in [16] and in assay [17] was above 100 µM in each case.

The values are drawn from PubChem BioAssay (NCI).
